Reference: PMC7498612, “A rationally designed bicyclic peptide remodels Aβ42 aggregation in vitro and reduces its toxicity in a worm model of Alzheimer’s disease” (Scientific Reports, 2020)
Where a SMILES comes first, the peptide text is derived from it.

What was measured:
Aβ42 monomers = target: T1, Aβ42 monomers (Homo sapiens, UniProt P05067); experiment: Bio-layer interferometry (BLI) binding of DesBP to sensor-coupled Aβ42 monomers; conditions: DesBP 50 and 100 μM, 30 °C
T1 construct: the 42-residue form of the amyloid β peptide (Aβ42)
Description: To test for direct peptide-peptide interaction, biolayer interferometry (BLI) was performed on the Octet RED96 System (ForteBio, Menlo Park, USA). DesBP was used as interaction partner for sensor-coupled Aβ42. Coupled sensors were first dipped into ForteBio kinetics buffer (PBS, 0.1% BSA, 0.02% Tween20 and 0.05% sodium azide, pH 7.4) to establish a stable baseline, then into different concentrations of DesBP and finally in pure kinetics buffer again to monitor dissociation. Both association and dissociation processes were monitored at 30 °C over 50 and 200 s, respectively. In the data analysis, all curves were globally fit with a 1:1 binding model.

N2 worms = experiment: C. elegans N2 control worms motility / fitness; format: in vivo; conditions: same concentration of DesBP (40 μM); compared to effect on Aβ worms
From the text: We thus administered DesBP to Aβ worms at day 4 (D4) of adulthood, when Aβ42 aggregates are already formed, and paralysis is ongoing, and compared the resulting effects of the addition of DesBP to those observed in a control worm model, N2 (see “Materials and methods” section). […] On the other hand, the effects of the same concentration of DesBP to control N2 worms were negligible when compared to the effect observed on Aβ worms (Supplementary Fig. 12).
Media Standard conditions were used for the propagation of C. elegans. Briefly, the animals were synchronized by hypochlorite bleaching, hatched overnight in M9 (3 g/l KH2PO4, 6 g/l Na2HPO4, 5 g/l NaCl, […]) buffer, and subsequently cultured at 20 °C on nematode growth medium (NGM) (CaCl2 1 mM, MgSO4 1 mM, cholesterol 5 µg/ml, […] pH 6, Agar 17 g/L, NaCl 3 g/l, casein 7.5 g/l) plates seeded with the E. coli strain OP50. Saturated cultures of OP50 were grown by inoculating 50 mL of LB medium (tryptone 10 g/l, NaCl 10 g/l, yeast extract 5 g/l) with OP50 and incubating the culture for 16 h at 37 °C. NGM plates were seeded with bacteria by adding 350 µl of saturated OP50 to each plate and leaving the plates at 20 °C for 2–3 days. On day 3 after synchronization, the animals were placed on NGM plates containing 5-fluoro-2′deoxy-uridine (FUDR) (75 μM, unless stated otherwise) to inhibit the growth of offspring. […]

[1] = tested on: islet amyloid polypeptide, Aβ and α-synuclein; conditions: cited from earlier work
From the text: In this study, we apply this design strategy to generate a bicyclic peptide capable of binding Aβ42 and of interfering with its aggregation process. The aggregation of Aβ42 is a complex process resulting from the combination of different microscopic steps and involving a variety of molecular species[35],[36]. […] Therefore, some therapeutic strategies aim at decreasing the concentrations of these oligomeric species by delaying or preventing their formatio ...

Aβ42 = experiment: ThT fluorescence aggregation kinetics of Aβ42; format: biochemical; conditions: ThT assay
Description: In order to investigate the effects of DesBP on the aggregation of Aβ42, we carried out in vitro aggregation assays using thioflavin T (ThT) as an amyloid-specific fluorescent probe[63],[64]. We monitored fibril formation for Aβ42 at a concentration of 2 µM in the absence and presence of a range of concentrations (0.25–16 fold excess) of DesBP at 37 °C under quiescent conditions, using a highly reproducible protocol previously described. We then validated our results by means of far-UV circular dichroism (CD) and atomic force microscopy (AFM).
Monomeric Aβ42 peptide solutions were prepared by dissolving the lyophilized peptide in 6 M GuHCl. A Superdex 75 10/300 GL column (GE Healthcare) was used to purify Aβ42 monomers from Aβ42 oligomers and salt with a flow rate of 0.5 ml/min, and eluted in 20 mM sodium phosphate buffer (pH 8) with 200 μM EDTA. By collecting the centres of the peaks, the monomeric Aβ42 concentrations were determined from the integrated peak area with ε280 = 1,495 L mol^−1 cm^−1. Aβ42 monomers were then diluted to the target concentration with buffer and 20 μM ThT was added from a 1 mM stock. […] Assays were carried out at 37 °C under quiescent conditions in a plate reader (Fluostar Optima; BMG Labtech). ThT fluorescence was measured through the bottom of the plate with 440 nm excitation and 480 nm emission filters, with five repeats per sample. […]

SMILES: CC[C@H](C)[C@@H]1NC(=O)CNC(=O)[C@H](CC(C)C)NC(=O)[C@H](CCCCN)NC(=O)[C@@H](NC(=O)[C@H](C)NC(=O)[C@H](C)NC(=O)[C@@H](N)CCCNC(=N)N)CSCc2cc3cc(c2)CSC[C@H](NC(=O)[C@H](C)NC(=O)[C@H](CCCCN)NC1=O)C(=O)N[C@@H]([C@@H](C)O)C(=O)N[C@@H](CO)C(=O)N[C@@H](C(C)C)C(=O)N[C@@H](Cc1ccc(O)cc1)C(=O)N[C@@H](Cc1c[nH]cn1)C(=O)N[C@@H](C)C(=O)N[C@H](C(=O)NCC(=O)NCC(=O)N[C@@H](CCCCN)C(=O)N[C@@H](CCCNC(=N)N)C(=O)N[C@@H](CCCNC(=N)N)C(=O)O)CSC3 [DesBP] (HELM PEPTIDE1{R.A.A.C.K.L.G.I.K.A.C.T.S.V.Y.H.A.C.G.G.K.R.R}|CHEM1{[c1c(C[*:1])cc(C[*:3])cc1C[*:2]]}$PEPTIDE1,CHEM1,4:R3-1:R1|PEPTIDE1,CHEM1,11:R3-1:R2|PEPTIDE1,CHEM1,18:R3-1:R3$$$V2.0)
- koff (Aβ42 monomers; pH 7.4, single-exponential fit, read-out: dissociation rate kd): 0.06 ± 0.002 s⁻¹
- Kd (Aβ42 monomers; Octet RED96, kinetics buffer PBS, 0.1% BSA, 0.02% Tween20, pH 7.4, association 50 s, dissociation 200 s, global fit 1:1 binding model, read-out: dissociation constant (KD)): 640 ± 260 µM
- effect on control N2 worms (N2 worms): negligible

SMILES: O=C(O[C@@H]1Cc2c(O)cc(O)cc2O[C@@H]1c1cc(O)c(O)c(O)c1)c1cc(O)c(O)c(O)c1 [EGCG, epigallocatechin gallate]
- modulation of aggregation process [1]: redirecting them towards the formation of non-toxic aggregates

SMILES: Cc1cc(C)cc(C)c1 [TMB, 1,3,5-trimethylbenzene]
- effect on Aβ42 aggregation (control compounds) (Aβ42; Supplementary Fig. 7): slightly delayed the nucleation step of Aβ42 aggregation
- magnitude of ThT fluorescence (control compound) (Aβ42; Supplementary Fig. 7b): did not show significant changes on the magnitude of ThT fluorescence

SMILES: CC(C)[C@@H](CC[C@@H](C)[C@H]1CC[C@H]2[C@@H]3[C@H](O)C[C@H]4C[C@@H](NCCCNCCCCNCCCN)CC[C@]4(C)[C@H]3CC[C@]12C)OS(=O)(=O)O [trodusquemine]
- modulation of aggregation process [1]: redirecting them towards the formation of non-toxic aggregates
